Experimental data reported in patent publication US20250213529A1, “5-METHOXY-N.N-[…][…] THE TREATMENT OF PSYCHOMOTOR RETARDATION” (GH RESEARCH IRELAND LIMITED, priority 2022, published 2025).

What was measured:
[1] = test system: Salmonella typhimurium (TA98, TA100, TA1535 and TA1537); test: Bacterial mutation test, Salmonella typhimurium; type: cell-based; settings: up to 5000 µg/plate; absence and presence of rat liver S-9
From the text: (§1) These conditions included treatments at concentrations up to […] (the maximum recommended concentration according to current regulatory guidelines), in the absence and in the presence of a rat liver metabolic activation system (S-9).

[2] = test system: Escherichia coli (WP2 uvrA pKM101); test: Bacterial mutation test, Escherichia coli; type: cell-based; settings: up to 5000 pg/plate; absence and presence of rat liver S-9
From the text: as §1

[3] = Pharmacokinetics of 5-MeO-DMT and bufotenine after inhalation; type: in vivo, human; settings: after 3 hours, 6, 12, 18 mg
[4] = test system: patients with postpartum depression (PPD); test: Clinical trial in patients with postpartum depression; settings: PPD patient (n=1); for Total MADRS improvement / Total MADRS score: baseline 29; for BPRS Tension improvement: baseline 6
Procedure: The single-arm, open-label clinical trial will involve 15 adult female patients with clinically diagnosed postpartum depression (PPD).
The second dose (12 mg) will only be administered if: • a. […] The 6 mg dose was safe and well-tolerated according to the investigator, • c. Any psychoactive effects (PsE) of the prior dose have subsided, and • d. Pre-dose vital parameters and forced expiratory volume in one second (FEV1) are in normal range, or if outside of the normal range, are not clinically significant according to the investigator. • 3. Similarly, a third dose (18 mg) will only be administered if: • a. […] The 12 mg dose was safe and well-tolerated according to the investigator, and • c. Any PsE of the prior dose have subsided, and • d. Pre-dose vital parameters and forced expiratory volume in one second (FEV1) are in normal range, or if outside of the normal range, are not clinically significant according to the investigator.
The patients will be assessed for a peak psychedelic experience (based on a patient-scored visual analogue scale, the PE scale), sedation, and other endpoints after dosing. Follow-up visits are planned for Day 1, and Day 7 after the dosing day.
The following criteria must be met by all patients considered for clinical trial participation: • 1. Is female and in the age range between 18 and 45 years (inclusive) at screening. • 2. Has a body mass index (BMI) in the range of 18.5 and 35 kg/m^2 (inclusive) at screening. • 3. Meets the trial criteria for PPD as assessed by a trial psychiatrist or registered psychologist: • a. Diagnosis of Major Depressive Disorder without psychotic features, confirmed by the Mini-International Neuropsychiatric Interview (MINI), with peri-partum onset that began no earlier than gestation and no later than the first 4 weeks postpartum. • b. Has a Montgomery-Åsberg Depression Rating Scale (MADRS) total score of equal to or greater than 28 at screening and pre-dose on Day 0. • 6. […] Patients must have a negative pregnancy test at screening and on the pre-test day (Day −1). • 5. Is willing to delay start of other antidepressant or anxiety medication until after the end of the trial at Day 7 and agrees to keep any psychotherapy unchanged during the trial.
A potential patient who meets any of the following key exclusion criteria will be excluded from participation in this trial: • 1. Has, based on history, psychiatric assessment, and evaluation of the MINI, a current or prior diagnosis of bipolar disorder, a manic or hypomanic episode, a psychotic disorder, Major Depressive Disorder (MDD) or other mood disorder with psychotic features, obsessive compulsive disorder, post-traumatic stress disorder (PTSD), autism spectrum disorder, borderline personality disorder, schizophrenia, delusional disorder, paranoid personality disorder, schizoaffective disorder, clinically significant intellectual disability, or any other psychiatric comorbidity that renders the patient unsuitable for the trial according to the investigator's judgment. • 2. Has one or more first or second degree relatives with a current or previously diagnosed bipolar disorder, psychotic disorder or other mood disorder (including MDD) with psychotic features. • 3. Is in the judgement of a trial psychiatrist or registered psychologist, at significant risk for suicide based on history, psychiatric assessment, and evaluation of suicidal ideation and suicidal behaviour based on the Columbia-Suicide Severity Rating Scale (C-SSRS). • 4. Has taken anti-depressive medication within 14 days or 5 half-lives (whichever is longer) prior to dosing (exception: within the last 5 weeks in the case of fluoxetine). • 5.

[5] = IDR 6 then 12 mg inhaled, Day 0 score 5
[6] = IDR 6 then 12 mg inhaled, Day 0 score 6
[7] = IDR 6 then 12 mg inhaled, Day 1
[8] = IDR 6 then 12 mg inhaled, Day 7, Day 0 score 5
[9] = IDR 6 then 12 mg inhaled, Day 7, Day 0 score 6
[10] = IDR 6 then 12 mg inhaled, Day 7
[11] = IDR 6 then 12 mg inhaled, Day 7 vs Day 0

SMILES: COc1ccc2[nH]cc(CCN(C)C)c2c1 [5-MeO-DMT]
- Induction of mutation [1]: did not induce mutation
- Induction of mutation [2]: did not induce mutation
- Detectability in plasma [3]: no longer detectable
- Tolerability of the inhalation procedure [4]: well tolerated with no inhalation-related adverse events
- Reported adverse events (cramping left abdominal pain and headache) ([4]; Day 0): mild, short-lasting and resolved spontaneously
- BIMF total score improvement, percent ([4]; Day 7, from 92 to 105): 14%
- ECG, safety laboratory analyses, CADSS ([4]; ECG 3 hours, laboratory 7 days, CADSS 3 hours, 1 day, 7 days): unremarkable
- MADRS remission (MADRS total score equal or less than 10) ([4]; IDR 6 then 12 mg inhaled): fulfilled
- MADRS response (at least 50% improvement from baseline) ([4]; IDR 6 then 12 mg inhaled): fulfilled
- Onset of clinical response after administration ([4]; IDR 6 then 12 mg inhaled): ≤ 2 h
- Time to clinical remission after administration ([4]; IDR 6 then 12 mg inhaled): ≤ 2 h
- Durability of clinical response ([4]; IDR 6 then 12 mg inhaled, given once): sustained over the 7-day follow-up period
- Total MADRS improvement ([4]; IDR 6 then 12 mg inhaled, 2 hr): 24
- Total MADRS score ([4]; IDR 6 then 12 mg inhaled, 2 hr): 5
- BIMF item 19 (As time goes on, I am getting better at taking care of my baby) Δ (Day 7) ([4]; IDR 6 then 12 mg inhaled, Day 0 score 0): 1
- BIMF item 13 (I am taking good care of my physical needs) Δ (Day 7) ([4]; IDR 6 then 12 mg inhaled, Day 0 score 4): 1
- BIMF item 5 (I am able to relax and enjoy time with my baby) Δ (Day 7) [4, 5]: 1
- BIMF item 9 (I am getting enough encouragement from other people) Δ (Day 7) [4, 5]: 1
- BIMF item 10 (I trust my own feelings (instincts) when it comes to taking care of my baby) Δ (Day 7) [4, 5]: 1
- BIMF item 11 (I take a little time each week to do something for myself) Δ (Day 7) [4, 5]: 1
- BIMF item 17 (I am able to take care of my baby and my other responsibilities) Δ (Day 7) [4, 5]: 0
- BIMF item 3 (I am comfortable with the way I've chosen to feed my baby) Δ (Day 7) [4, 6]: 0
- BIMF item 6 (There are people in my life that I can trust to care for my baby when I need a break) Δ (Day 7) [4, 6]: 0
- BIMF item 8 (I am getting enough adult interaction) Δ (Day 7) [4, 6]: 0
- BIMF item 12 (I am taking good care of my baby's physical needs) Δ (Day 7) [4, 6]: 0
- BIMF item 14 (I make good decisions about my baby's health and well being) Δ (Day 7) [4, 6]: 0
- BIMF item 20 (I am satisfied with the job I am doing as a new mother) Δ (Day 7) [4, 6]: −1
- BIMF TOTAL Δ (Day 7) ([4]; IDR 6 then 12 mg inhaled, Day 0 score 92): 13
- BPRS Tension improvement [4, 7]: 5
- Total MADRS improvement [4, 7]: 29
- Total MADRS score [4, 7]: 0
- BIMF item 19 (As time goes on, I am getting better at taking care of my baby) score ([4]; IDR 6 then 12 mg inhaled, Day 7, Day 0 score 0): 1
- BIMF item 16 (I worry about how other people judge me (as a mother)) score ([4]; IDR 6 then 12 mg inhaled, Day 7, Day 0 score 3): 5
- BIMF item 13 (I am taking good care of my physical needs) score ([4]; IDR 6 then 12 mg inhaled, Day 7, Day 0 score 4): 5
- BIMF item 5 (I am able to relax and enjoy time with my baby) score [4, 8]: 6
- BIMF item 9 (I am getting enough encouragement from other people) score [4, 8]: 6
- BIMF item 10 (I trust my own feelings (instincts) when it comes to taking care of my baby) score [4, 8]: 6
- BIMF item 11 (I take a little time each week to do something for myself) score [4, 8]: 6
- BIMF item 17 (I am able to take care of my baby and my other responsibilities) score [4, 8]: 5
- BIMF functional domain Adjustment score ([4]; IDR 6 then 12 mg inhaled, Day 7, Day 0 score 5, maximum 12): 6
- BIMF item 3 (I am comfortable with the way I've chosen to feed my baby) score [4, 9]: 6
- BIMF item 6 (There are people in my life that I can trust to care for my baby when I need a break) score [4, 9]: 6
- BIMF item 8 (I am getting enough adult interaction) score [4, 9]: 6
- BIMF item 12 (I am taking good care of my baby's physical needs) score [4, 9]: 6
- BIMF item 14 (I make good decisions about my baby's health and well being) score [4, 9]: 6
- BIMF item 20 (I am satisfied with the job I am doing as a new mother) score [4, 9]: 5
- BIMF functional domain Self Care score ([4]; IDR 6 then 12 mg inhaled, Day 7, Day 0 score 9, maximum 18): 13
- BIMF functional domain Infant Care score ([4]; IDR 6 then 12 mg inhaled, Day 7, Day 0 score 12, maximum 12): 12
- BIMF functional domain Mother-Child Interaction score ([4]; IDR 6 then 12 mg inhaled, Day 7, Day 0 score 15, maximum 18): 17
- BIMF functional domain Social Support score ([4]; IDR 6 then 12 mg inhaled, Day 7, Day 0 score 17, maximum 18): 18
- BIMF functional domain Management score ([4]; IDR 6 then 12 mg inhaled, Day 7, Day 0 score 28, maximum 36): 33
- BIMF functional domain Psychological Well-being score ([4]; IDR 6 then 12 mg inhaled, Day 7, Day 0 score 44, maximum 60): 53
- Total MADRS improvement [4, 10]: 28
- Total MADRS score [4, 10]: 1
- BIMF functional domain Adjustment % Improvement [4, 11]: 20.00%
- BIMF functional domain Infant Care % Improvement [4, 11]: 0.00%
- BIMF functional domain Management % Improvement [4, 11]: 18%
- BIMF functional domain Self Care % Improvement [4, 11]: 44%
- BPRS Tension improvement ([4]; IDR 6 then 12 mg inhaled, Discharge): 5
- PES score (intensity of the psychedelic experience) ([4]; nominal dose of 6 mg inhaled): 17.3
- Changes in vital parameters ([4]; shortly after administration): temporary, clinically non-relevant increase in heart rate and blood pressure
- PES score (intensity of the psychedelic experience) ([4]; subsequent dose of 12 mg inhaled): 85.7
